Reference: patent publication US20250066306A1, “COMPOUNDS FOR TREATING MICROBIAL INFECTIONS, METHODS OF MAKING AND USES THEREOF” (McMaster University, priority 2023, published 2025)
pIC50: −log10 of the molar value. Entries after “also recorded” stand apart in the source; their conditions may differ. Read-outs that look alike come from different tables or passages of the source.

Assays:
HSV-1 [1] = test: HSV-1 DualF infection of iPSC-derived NPC monolayers, flow cytometry of EGFP/RFP; assay type: cell-based; conditions: for reduction of the percentage of EGFP+-RFP+ cells / anti-HSV-1 activity: 10 μM; for reduction of the percentage of EGFP+-RFP+ cells: MOI 0.1, added 2 h after infection, day 3 p.i., flow cytometry; for antiviral efficacy of ACV compared with Ia: ACV 50 μM vs Ia 10 μM; for anti-HSV-1 activity: 01SD and 9001 NPCs
01SD NPC cultures = test: Cytotoxicity in uninfected 01SD NPC cultures, flow cytometry with fixable viability dye; assay type: cell-based, human; conditions: uninfected 01SD NPCs
HSV-1 [2] = assay type: cell-based; conditions: 9001 and 01SD brain organoids, fourteen-week old; compounds 10 μM, ACV 50 μM; day 3 p.i.
SARS-CoV2 = test: NIH-NIAID in vitro SARS-CoV2 viral replication assay in Calu3 cells; assay type: cell-based
02SF NPCs = test: RNA sequencing of uninfected NPCs treated with compounds; assay type: cell-based, human; conditions: 10 μM, 72 hours; of 12,433 expressed genes; FDR corrected p<=0.05
[3] = test system: eukaryotic initiation factor 2 (EIF2) signaling pathway; test: Ingenuity Pathway Analysis of differentially expressed genes; assay type: cell-based, human; conditions: IPA of DEG, treated vs vehicle; 10 μM
Procedure: Differentially Expressed Genes (DEG) measured by comparing 2b- and Ia (compound 8)-treated NPCs vs. vehicle-treated NPCs were subjected to Ingenuity Pathway Analysis (IPA). The top 10 pathways showing the greatest statistical significance (Fisher's Exact Test p-value) are shown. Activation (+ve z-score, orange bars) or inhibition (−ve z-score, blue bars) of each pathway is a measure of experimentally determined gene expression changes reported in the literature. Data were analyzed through the use of QIAGEN Ingenuity® Pathway Analysis. The intensity of color indicates the degree of activation/inhibition. Pathways without an activity pattern are in grey. Ratios (orange square above each pathway) represent the degree of overlap between DEG and all members of a given pathway. Y-axis on the right indicates ratio values.
Statistical significance was calculated using right-tailed Fisher Exact Probability Tests; biological pathways showing p-value<0.05 were considered statistically significant. […] IPA analyses also indicated net upregulation in the autophagy and sirtuin signaling pathways.

[4] = test system: eIF2α phosphorylated on Serine 51; test: Immunocytochemistry of eIF2α phosphorylated on serine 51 in NPC cultures; assay type: cell-based, human; conditions: 9001 NPCs; 10 μM; 24 hours; vs untreated or 7-treated
Procedure: (A) NPCs derived from 9001 iPSC lines were exposed to compounds 7, Ia (compound 8), and 2b (10 μM). After 24 hours, cells were fixed and stained with an antibody that detects eIF2α phosphorylated on Serine 51 (EIF2S1). Nuclei were counterstained with Hoechst 33342, and phosphorylation was assessed by fluorescence microscopy. (B) The corrected total cell fluorescence (CTCF) was obtained by measuring EIF2S1 fluorescence in cells where a fluorescent signal could be detected and normalizing for cellular area using equation CTCF=integrated density−(cellular area×mean fluorescence of background readings) (C-D). Up-regulation of the EIF2A kinase EIF2AK3 (C) and the activated transcription factor 4 (ATF4) (D) in 2b- and Ia (compound 8)-treated NPCs. (E) Proposed mechanism of action of 2b and Ia (compound 8).

[5] = test system: Calu3 (ATCC, HTB-55) cells; conditions: assessed at NIH
HSV-1 [6] = conditions: earlier work, refs 3d, 5a; cited from earlier work
HSV-1 [7] = conditions: ex vivo mouse model; earlier work; cited from earlier work
[8] = test system: fibroblasts and hepatocytes; conditions: earlier work; cited from earlier work
[9] = test system: iPSC-derived neural progenitor cells (NPCs); conditions: earlier work; cited from earlier work
[10] = earlier work, refs 5a, 5b; cited from earlier work
[11] = test system: 9001 and 01SD brain organoids; test: Organoid viability, calcein AM assay; assay type: cell-based, human; conditions: without HSV-1 infection; concentrations up to 50 μM
Procedure: (A) Sixteen-week old 9001 and 01SD brain organoids were infected individually with HSV-1 DualF construct (6000 pfu/organoid). After 2 hours the inocula were removed and Ia was added to varying concentrations (100 nM-[…]). The IC50 was estimated by determining the corrected total cell fluorescence (CTCF) obtained by measuring EGFP fluorescence in organoids using ImageJ and normalizing for background using equation CTCF=integrated density−(area of the organoid x mean fluorescence of background readings). (b) Cytotoxicity of compound Ia without HSV-1 infection was assessed using calcein-AM. The fluorescence of calcein-AM in each organoid was measured and CTCF was determined as described above. The data represent an average of six independent experiments. Error bars represent standard deviations. No significant difference were found between conditions. […]
Organoids viability was analyzing using calcein AM assay (BioLegend; catalogue #425201), according to manufacturer's instructions. […] After incubation, fluorescence signals were recorded using a LEICA DMIL LED Fluorescent microscope through a 0.16NA 4x air objective.
The corrected total cell fluorescence (CTCF) was obtained by measuring EGFP fluorescence in 799-treated and untreated organoids, and normalizing for whole organoid area using equation CTCF=integrated density−(whole organoid area x mean fluorescence of background readings).

HSV-1 strain 17syn+ = test: In vivo mouse eye HSV-1 infection (corneal scarification), plaque assay of eye swabs; set-up: species or system ND4 Swiss mice
Description: ND4 swiss mice were infected by corneal scarification with 1×10^5 pfu of HSV-1 strain 17syn+. Eyes were swabbed daily for 4 days and assayed for infectious virus by standard plaque assay.
The antiviral efficacy of compound Ia was further investigated in an in vivo mouse model. In order to assess the efficacy of Ia against an acute infection go HSV-1 in vivo, ND4 Swiss mice were infected in the eyes with HSV-1 following light corneal scarification. At the same time that the virus was applied, one group of mice (n=10) were treated with 2 uL of a 50 μM solution of R799 in DMSO and the other group (n=10) were treated with 2 uL DMSO (vehicle), applied to the eyes. The eyes were treated with either vehicle or Ia each day for 4 days. In order to assess the effect of Ia on the course of the infection, the eyes were swabbed daily with a Dacron swab, and the virus eluted in MEM medium. The swab eluate was assessed for the presence of infectious virus by standard plaque assay on rabbit skin cell monolayers.

With O=C1N[C@H]2[C@H](O)[C@H](O)[C@@H](O)C[C@@H]2c2cc3c(cc21)OCO3 (relative stereo) [Compound 2b, trans-dihydrolycoricidine, reference compound] the “reduction of the percentage of EGFP+-RFP+ cells” value (HSV-1 [1]; 01SD NPCs) was 8016 fold, the “reduction of the percentage of EGFP+-RFP+ cells” value (HSV-1 [1]; 9001 NPCs) was 424 fold and the “concentration from which a reduction in cell viability was observed” value (01SD NPC cultures) was at least 25 µM. For the same molecule, the “anti-HSV-1 activity (expression of EGFP and RFP reporter genes)” value (HSV-1 [2]) was “no expression of EGFP and RFP reporter genes”, the pIC50 (SARS-CoV2; SARS-CoV2 in Calu3 cells, assessed at NIH, read-out: IC50) was 6.74 and the “fraction of expressed genes significantly altered” value (02SF NPCs) was 62.5%. For the same molecule, the “number of genes whose expression was significantly altered” value (02SF NPCs) was 7,766, the “EIF2 signaling pathway z score” value [3] was −2.857 and the “eIF2α~P immunoreactivity” value [4] was “increased eIF2α˜P immunoreactivity”. The CC [5] was 3.48 µM, the “inhibition of HSV-1 replication compared with acyclovir” value (HSV-1 [6]) was “more efficaciously than acyclovir” and the “HSV-1 reactivation from latency” value (HSV-1 [7]) was “prevents HSV-1 reactivation from latency”. The “toxicity in comparison to acyclovir” value [8] was “Slightly higher toxicity” and the “toxicity in comparison to acyclovir” value [9] was “lower toxicity”.

In the case of Nc1nc2c(ncn2COCCO)c(=O)[nH]1 [ACV, acyclovir, reference compound], the “antiviral efficacy of ACV compared with Ia” value (HSV-1 [1]; 01SD NPCs, p=0.0208) was “inferior to Ia” and the “antiviral efficacy of ACV compared with Ia” value (HSV-1 [1]; 9001 NPCs, p=0.3597) was “comparable”.

In the case of O=C1NC2C(CC(O)C(O)C2O)c2cc3c(cc21)OCO3 (stereo not drawn) [C3-epimer of 2b], the antiviral activity [10] is listed as “totally devoid of antiviral activity”.

In the case of COc1ccc2c(c1)[C@H]1C[C@H](O)[C@@H](O)[C@@H](O)[C@@H]1NC2=O [Compound 5, (2S,3R,4S,4aR,10bR)-2,3,4-Trihydroxy-9-methoxy-1,3,4,4a,5,10b-hexahydrophenanthridin-6(2H)-one], the anti-HSV-1 activity (HSV-1 [1]) was “no anti-HSV-1 activity” and the “solubility in DMSO” value (Solubility in DMSO) was “incompletely soluble in DMSO”.

For O=C1N[C@H]2[C@H](O)[C@H](O)[C@@H](O)C[C@@H]2c2cc(O)ccc21 [Compound 6, (2S,3R,4S,4aR,10bR)-2,3,4,9-Tetrahydroxy-1,3,4,4a,5,10b-hexahydrophenanthridin-6(2H)-one], the anti-HSV-1 activity (HSV-1 [1]) was “no anti-HSV-1 activity”, the “anti-HSV-1 activity (expression of EGFP and RFP reporter genes)” value (HSV-1 [2]) was “no anti-HSV-1 activity” and the “fraction of expressed genes significantly altered” value (02SF NPCs) was 2.1%. The “number of genes whose expression was significantly altered” value (02SF NPCs) was 256.

With COc1cccc2c1C(=O)N[C@H]1[C@H](O)[C@H](O)[C@@H](O)C[C@H]21 [Compound 7, (2S,3R,4S,4aR,10bR)-2,3,4-Trihydroxy-7-methoxy-1,3,4,4a,5,10b-hexahydrophenanthridin-6(2H)-one] the anti-HSV-1 activity (HSV-1 [1]) was “no anti-HSV-1 activity”, the “anti-HSV-1 activity (expression of EGFP and RFP reporter genes)” value (HSV-1 [2]) was “no anti-HSV-1 activity” and the “fraction of expressed genes significantly altered” value (02SF NPCs) was 0.3%. The “number of genes whose expression was significantly altered” value (02SF NPCs) was 33.

With O=C1N[C@H]2[C@H](O)[C@H](O)[C@@H](O)C[C@@H]2c2cccc(O)c21 [Compound Ia, (2S,3R,4S,4aR,10bR)-2,3,4,7-Tetrahydroxy-1,3,4,4a,5,10b-hexahydrophenanthridin-6(2H)-one] the “reduction of the percentage of EGFP+-RFP+ cells” value (HSV-1 [1]; 01SD NPCs) was 6.76 fold, the “reduction of the percentage of EGFP+-RFP+ cells” value (HSV-1 [1]; 9001 NPCs) was 4.65 fold and the “cell viability of treated cultures” value (01SD NPC cultures; concentrations up to 50 μM, ACV and Ia compared) was “comparable”. For the same molecule, the “anti-HSV-1 activity (expression of EGFP and RFP reporter genes)” value (HSV-1 [2]) was “no expression of EGFP and RFP reporter genes; also recorded: comparable to 2b and ACV”, the “organoid viability (calcein AM)” value [11] was “No significant reduction in organoid viability” and the therapeutic selectivity (SARS-CoV2; CC / IC50, SARS-CoV2 in Calu3 cells) was 20. The pIC50 (SARS-CoV2; Severe acute respiratory syndrome coronavirus 2, Calu-3) was 7.05, the “fraction of expressed genes significantly altered” value (02SF NPCs) was 59.8% and the “number of genes whose expression was significantly altered” value (02SF NPCs) was 7,433. The “EIF2 signaling pathway z score” value [3] was −1.763, the “eIF2α~P immunoreactivity” value [4] was “increased eIF2α˜P immunoreactivity” and the “yield of infectious virus in the tears (HSV-1 shedding) compared to vehicle” value (HSV-1 strain 17syn+; 2 uL of 50 μM solution in DMSO to the eyes daily for 4 days, n=10) was “dramatically reduced the yield of infectious virus; also recorded: dramatically reduces HSV-1 shedding”. The “reduction of peak titer of infectious virus versus vehicle” value (HSV-1 strain 17syn+; 2 uL of 50 μM solution topically daily) was about 3 fold, the “delay of peak titer of infectious virus versus vehicle” value (HSV-1 strain 17syn+; 2 uL of 50 μM solution topically daily, vehicle peak at day 2 post-infection) was “one” and the CC [5] was 1.92 µM.
